# Molecular target: T1, LXRβ (Homo sapiens, UniProt P55055)
# T1 construct: Co-transfection expression plasmids, comprising full-length LXRα (pCMX-h LXRα or LXRβ (pCMX-hLXRβ)); expressed in transfected cells; host or cells: CV-1 African green monkey kidney cells, transient transfection with pCMX-hLXRβ
# T1 sequence (P55055 1-460): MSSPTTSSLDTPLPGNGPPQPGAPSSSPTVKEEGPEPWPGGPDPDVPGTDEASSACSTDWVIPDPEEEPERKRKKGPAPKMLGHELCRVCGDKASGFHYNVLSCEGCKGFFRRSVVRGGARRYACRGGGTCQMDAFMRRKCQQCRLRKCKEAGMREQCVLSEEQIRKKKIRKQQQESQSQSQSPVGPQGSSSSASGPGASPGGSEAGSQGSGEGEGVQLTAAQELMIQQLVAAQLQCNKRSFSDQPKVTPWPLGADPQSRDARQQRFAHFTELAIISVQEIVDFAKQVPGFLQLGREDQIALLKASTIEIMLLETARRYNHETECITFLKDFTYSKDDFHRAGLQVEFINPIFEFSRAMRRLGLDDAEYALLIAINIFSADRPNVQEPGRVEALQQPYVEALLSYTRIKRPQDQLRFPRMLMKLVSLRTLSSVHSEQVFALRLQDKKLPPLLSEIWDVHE
# T1 sequence (P19793 1-462 partner): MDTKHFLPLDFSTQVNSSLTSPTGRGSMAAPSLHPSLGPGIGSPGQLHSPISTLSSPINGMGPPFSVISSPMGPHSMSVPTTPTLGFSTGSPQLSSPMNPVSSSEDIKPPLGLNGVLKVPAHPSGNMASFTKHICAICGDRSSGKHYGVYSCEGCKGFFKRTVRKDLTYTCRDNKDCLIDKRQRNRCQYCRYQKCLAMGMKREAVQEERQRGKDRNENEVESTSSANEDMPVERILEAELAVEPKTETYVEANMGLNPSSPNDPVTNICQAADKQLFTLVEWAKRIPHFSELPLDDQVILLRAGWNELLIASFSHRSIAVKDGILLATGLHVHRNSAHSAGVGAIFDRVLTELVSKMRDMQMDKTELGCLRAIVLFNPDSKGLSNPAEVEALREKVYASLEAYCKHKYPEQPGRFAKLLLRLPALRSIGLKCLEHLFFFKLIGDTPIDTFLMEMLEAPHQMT
# Test: LXR/LXRE co-transfection assay (luciferase reporter) in CV-1 cells, LXRβ
# Format: cell-based
# Settings: for EC50: CV-1 cells transfected with pCMX-hLXRβ and LXREx1-Tk-Luciferase, 20 hours incubation, read-out: LXRbeta agonism EC50; for Emax: CV-1 cells, relative to maximum response of high control N-(3-((4-fluorophenyl)-(naphthalene-2-sulfonyl)amino)propyl)-2,2-dimethylpropionamide, read-out: LXRbeta % EFFICACY
# Description: To measure the ability of compounds to activate or inhibit the transcriptional activity of LXR in a cell based assay, the co-transfection assay was used. It has been shown that LXR functions as a heterodimer with RXR. For the co-transfection assay, expression plasmids for LXRα and LXRβ are introduced separately via transient transfection into mammalian cells along with a luciferase reporter plasmid that contains one copy of a DNA sequence that is bound by LXR-RXR heterodimers (LXRE; Willy, P. et. al. 1995). LXRs heterodimerize with the endogenous RXR. Treatment of transfected cells with an LXR agonist increases the transcriptional activity of LXR, which is measured by an increase in luciferase activity.
# Co-transfection expression plasmids, comprising full-length LXRα (pCMX-h LXRα or LXRβ (pCMX-hLXRβ), reporter plasmid (LXREx1-Tk-Luciferase), and control (pCMX-Galactosidase expression vector) (Willey et al. Genes & Development 9 1033-1045 (1995)).
# CV-1 cells were prepared 24 hours prior to the experiment by plating them into T-175 flasks or 500 cm^2 dishes in order to achieve 70-80% confluency on the day of the transfection. The number of cells to be transfected was determined by the number of plates to be screened. Each well of a 384 well plate requires 1.5×10^4 cells. DNA Transfection Reagent was prepared by mixing the required plasmid DNAs with a cationic lipid transfection reagent Transit 2020 (Mirus Bio) for CV1 by following the instructions provided with the reagents. Optimal DNA amounts were determined empirically per cell line and size of vessel to be transfected. For each T175 cm^2 flask a total of 44.4 ug for CV1 of DNA, 133 ul Transit2020 and 4.5 ml DMEM for CV1 was mixed and added. Cells were then incubated at least 5 hours at 37° C. to prepare screening cells.
# Assay plates were prepared by dispensing 5 μL of compound per well of a 384 well plate to achieve final compound concentration of 10 μM and no more than 0.5% DMSO. Media was removed from the screening cells, the cells trypsinized, harvested cells by centrifugation, counted, and plated at a density of approximately 1.5×10^4 cells in the 384 well assay plate prepared above in a volume of about 95 uL. Assay plates containing both compounds and screening cells (100 μL in total volume) were incubated for 20 hours at 37° C.
# After incubation with compounds, media was removed from the cells and luciferase assay reagent (30 μL/well) added. After ˜2 minutes at ambient temperature, the assay plates were read on a luminometer (PE Biosystems Northstar reader with on-board injectors, or Envision (Perkin Elmer) or equivalent).
# The LXR/LXRE co-transfection assay can be used to establish the EC50/IC50 values for potency and percent activity or inhibition for efficacy. Efficacy defines the activity of a compound relative to a high control ((N-(3-((4-fluorophenyl)-(naphthalene-2-sulfonyl)amino)propyl)-2,2-dimethylpropionamide)) or a low control (DMSO/vehicle). The dose response curves are generated from a 10 point curve with concentrations differing by ½ LOG units. Each point represents the average of 4 wells of data from a 384 well plate.
# The data from this assay is fitted to the following equation, from which the EC50 value may be solved: Y=Bottom+(Top−Bottom)/(1+10^((log EC50-X)*HillSlope)).
# The EC50/IC50 is therefore defined as the concentration at which an agonist or antagonist elicits a response that is halfway between the Top (maximum) and Bottom (baseline) values. The EC50/IC50 values represented are the averages of at least 2 and normally 3 independent experiments. The determination of the relative efficacy or % control for an agonist is by comparison to the maximum response achieved by ((N-(3-((4-fluorophenyl)-(naphthalene-2-sulfonyl)-amino)propyl)-2,2-dimethylpropionamide) that is measured individually in each dose response experiment.
# Table 1 lists LXRβ EC50 values and % efficacy measurements in the cotransfection assay for examples of this invention.
EC50,Emax,Compound
1080 nM,60%,"Cc1nc(-c2ccc3c(c2)OC(F)(F)O3)c(-c2cc(-c3cccc(S(C)(=O)=O)c3)ccc2-c2cc(CC(N)=O)nn2C)o1 [Example 119, 2-(5-(3-(4-(2,2-difluorobenzo[d][1,3]dioxol-5-yl)-2-methyloxazol-5-yl)-3′-(methylsulfonyl)-[1,1′-biphenyl]-4-yl)-1-methyl-1H-pyrazol-3-yl)acetamide]"
41 nM,80%,"Cc1nc(-c2ccc(OC(F)(F)F)cc2)c(-c2cc(-c3cccc(C(C)(C)C(N)=O)c3)ccc2-n2cc(Cl)c(C(F)(F)F)n2)o1 [Example 430, 2-(4′-(4-chloro-3-(trifluoromethyl)-1H-pyrazol-1-yl)-3′-(2-methyl-4-(4-(trifluoromethoxy)phenyl)oxazol-5-yl)-[1,1′-biphenyl]-3-yl)-2-methylpropanamide]"
67 nM,55%,"Cc1nc(-c2ccc3c(c2)OC(F)(F)O3)c(-c2cc(-c3cc(F)c(CO)c(S(C)(=O)=O)c3)ccc2-c2cc(C(C)(C)C(N)=O)nn2C)o1 [Example 65, 2-(5-(3-(4-(2,2-difluorobenzo[d][1,3]dioxol-5-yl)-2-methyloxazol-5-yl)-3′-fluoro-4′-(hydroxymethyl)-5′-(methylsulfonyl)biphenyl-4-yl)-1-methyl-1H-pyrazol-3-yl)-2-methylpropanamide]"
273 nM,28%,"Cc1nc(-c2ccc3c(c2)OC(F)(F)O3)c(-c2cc(-c3cc(F)c(CO)c(S(C)(=O)=O)c3)ccc2-c2cc(C(=O)NC(C)(C)C)nn2C)o1 [Example 114, N-(tert-butyl)-5-(3-(4-(2,2-difluorobenzo[d][1,3]dioxol-5-yl)-2-methyloxazol-5-yl)-3′-fluoro-4′-(hydroxymethyl)-5′-(methylsulfonyl)-[1,1′-biphenyl]-4-yl)-1-methyl-1H-pyrazole-3-carboxamide]"
1380 nM,48%,"Cn1nc(C(F)(F)CO)cc1-c1ccc(-c2cccc(S(C)(=O)=O)c2)cc1-n1nncc1-c1ccc(Cl)cc1 [Example 24, 2-(5-(3-(5-(4-chlorophenyl)-1H-1,2,3-triazol-1-yl)-3′-(methylsulfonyl)-[1,1′-biphenyl]-4-yl)-1-methyl-1H-pyrazol-3-yl)-2,2-difluoroethanol]"
46 nM,32%,"Cc1nc(-c2ccc3c(c2)OC(F)(F)O3)c(-c2cc(-c3cc(F)c(CO)c(S(C)(=O)=O)c3)ccc2-c2cc(CC(C)(C)O)nn2C)o1 [Example 120, 1-(5-(3-(4-(2,2-difluorobenzo[d][1,3]dioxol-5-yl)-2-methyloxazol-5-yl)-3′-fluoro-4′-(hydroxymethyl)-5′-(methylsulfonyl)-[1,1′-biphenyl]-4-yl)-1-methyl-1H-pyrazol-3-yl)-2-methylpropan-2-ol]"
34 nM,86%,"Cc1nc(-c2cc(-c3cc(F)c(CO)c(S(C)(=O)=O)c3)ccc2-n2nc(C(F)(F)F)cc2C)c(-c2ccc(OC(F)(F)F)cc2)o1 [Example 386, (3-fluoro-4′-(5-methyl-3-(trifluoromethyl)-1H-pyrazol-1-yl)-3′-(2-methyl-5-(4-(trifluoromethoxy)phenyl)oxazol-4-yl)-5-(methylsulfonyl)biphenyl-4-yl)methanol]"
32 nM,87%,"Cc1nc(-c2ccc3c(c2)OC(F)(F)O3)c(-c2cc(-c3cccc(S(C)(=O)=O)c3)ccc2-c2cc(C(C)(F)F)nn2C)o1 [Example 94, 4-(2,2-difluorobenzo[d][1,3]dioxol-5-yl)-5-(4-(3-(1,1-difluoroethyl)-1-methyl-1H-pyrazol-5-yl)-3′-(methylsulfonyl)biphenyl-3-yl)-2-methyloxazole]"
37 nM,90%,"Cc1nc(-c2ccc3c(c2)OC(F)(F)O3)c(-c2cc(-c3cccc(S(C)(=O)=O)c3)ccc2-n2nc(C(F)(F)F)cc2Cl)o1 [Example 346, 5-(4-(5-chloro-3-(trifluoromethyl)-1H-pyrazol-1-yl)-3′-(methylsulfonyl)biphenyl-3-yl)-4-(2,2-difluorobenzo[d][1,3]dioxol-5-yl)-2-methyloxazole]"
14 nM,67%,"CS(=O)(=O)c1cc(-c2ccc(-n3ccc(C(F)(F)F)n3)c(-c3nc(C4CC4)oc3-c3ccc(OC(F)(F)F)cc3)c2)cc(F)c1CO [Example 402, (3′-(2-cyclopropyl-5-(4-(trifluoromethoxy)phenyl)oxazol-4-yl)-3-fluoro-5-(methylsulfonyl)-4′-(3-(trifluoromethyl)-1H-pyrazol-1-yl)biphenyl-4-yl)methanol]"
38 nM,63%,"CC(C)c1nc(-c2cc(-c3cc(F)c(CO)c(S(C)(=O)=O)c3)ccc2-n2ccc(C(F)(F)F)n2)c(-c2ccc(OC(F)(F)F)cc2)o1 [Example 398, (3-fluoro-3′-(2-isopropyl-5-(4-(trifluoromethoxy)phenyl)oxazol-4-yl)-5-(methylsulfonyl)-4′-(3-(trifluoromethyl)-1H-pyrazol-1-yl)biphenyl-4-yl)methanol]"
1580 nM,82%,"Cn1nc(C(F)(F)C(N)=O)cc1-c1ccc(-c2cccc(S(C)(=O)=O)c2)cc1-n1nncc1-c1ccc(OC(F)(F)F)cc1 [Example 4, 2,2-difluoro-2-(1-methyl-5-(3′-(methylsulfonyl)-3-(5-(4-(trifluoromethoxy)phenyl)-1H-1,2,3-triazol-1-yl)biphenyl-4-yl)-1H-pyrazol-3-yl)acetamide]"
60 nM,78%,"Cc1nc(-c2ccc(Cl)cc2Cl)c(-c2cc(-c3cccc(S(C)(=O)=O)c3)ccc2-n2cc(Cl)c(C(F)(F)F)n2)o1 [Example 423, 5-(4-(4-chloro-3-(trifluoromethyl)-1H-pyrazol-1-yl)-3′-(methylsulfonyl)-[1,1′-biphenyl]-3-yl)-4-(2,4-dichlorophenyl)-2-methyloxazole]"

# From patent US9751869B2, “LXR modulators” (BRISTOL-MYERS SQUIBB COMPANY, priority 2013, dated 2017)
